Test results taken from ChEMBL document CHEMBL1123539, “[p-[(Thienylcarbonyl)amino]phenoxy]propanolamines derivatives as diuretic and beta-adrenergic receptor blocking agents” (1986).

Tests used:
Rattus norvegicus [1] = assay: Compound was tested for oral salidiuretic activity (control/drug treatment value) in rats expressed as urinary output. at a dose of 128 mg/kg; 8.72/8.02; assay type: functional, Urine
[2] = biological target: Beta-2 adrenergic receptor (Canis lupus familiaris) (UniProt P54833)
Chain of Beta-2 adrenergic receptor (Canis lupus familiaris) (P54833 whole entry, looked up): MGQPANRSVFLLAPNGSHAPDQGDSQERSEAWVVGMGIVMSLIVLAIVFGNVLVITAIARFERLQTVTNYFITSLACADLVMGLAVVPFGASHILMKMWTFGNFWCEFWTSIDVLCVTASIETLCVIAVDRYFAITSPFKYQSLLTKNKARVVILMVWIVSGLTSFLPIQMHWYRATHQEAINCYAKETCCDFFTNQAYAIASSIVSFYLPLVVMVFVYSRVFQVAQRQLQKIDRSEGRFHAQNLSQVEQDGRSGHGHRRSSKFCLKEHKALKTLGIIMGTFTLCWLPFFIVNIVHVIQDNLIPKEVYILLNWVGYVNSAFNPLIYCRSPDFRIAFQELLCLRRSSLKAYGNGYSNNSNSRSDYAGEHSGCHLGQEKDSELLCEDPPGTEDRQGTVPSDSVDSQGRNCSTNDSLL
Description: The compound was tested for beta-2 adrenergic receptor blocking activity in dogs

[3] = biological target: Beta-1 adrenergic receptor (Homo sapiens) (UniProt P08588); conditions: Canis lupus familiaris
Chain of Beta-1 adrenergic receptor (Homo sapiens) (P08588 whole entry, looked up): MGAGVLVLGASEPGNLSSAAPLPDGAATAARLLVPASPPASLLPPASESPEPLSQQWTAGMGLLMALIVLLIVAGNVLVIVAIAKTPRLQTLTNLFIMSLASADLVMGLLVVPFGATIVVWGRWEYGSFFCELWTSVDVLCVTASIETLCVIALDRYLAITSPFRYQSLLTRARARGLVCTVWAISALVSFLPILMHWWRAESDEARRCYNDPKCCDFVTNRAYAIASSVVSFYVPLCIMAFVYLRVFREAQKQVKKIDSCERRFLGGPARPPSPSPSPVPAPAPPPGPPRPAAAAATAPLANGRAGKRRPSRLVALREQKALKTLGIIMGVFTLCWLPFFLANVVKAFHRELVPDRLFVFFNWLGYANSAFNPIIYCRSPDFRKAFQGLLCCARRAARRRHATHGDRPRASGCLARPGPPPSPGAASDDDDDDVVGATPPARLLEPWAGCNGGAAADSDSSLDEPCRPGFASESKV
Description: Compound was tested for beta-1 adrenergic receptor blocking activity in dogs

Rattus norvegicus [4] = assay: Compound was tested for oral salidiuretic activity (control/drug treatment value) in rats expressed in Na+, mequiv/6 hr at a dose of 128 mg/kg; 0.163/0.133; assay type: functional, Urine
Rattus norvegicus [5] = assay: Compound was tested for oral salidiuretic activity (control/drug treatment value) in rats expressed as urinary output. at a dose of 128 mg/kg; 8.42/10.18; assay type: functional, Urine
Rattus norvegicus [6] = assay: Compound was tested for oral salidiuretic activity (control/drug treatment value) in rats expressed in Na+, mequiv/6 hr at a dose of 128 mg/kg; 0.186/0.853; assay type: functional, Urine
Rattus norvegicus [7] = assay: Compound was tested for oral salidiuretic activity (control/drug treatment value) in rats expressed as urinary output. at a dose of 32 mg/kg; 7.33/9.17; assay type: functional, Urine
Rattus norvegicus [8] = assay: Compound was tested for oral salidiuretic activity (control/drug treatment value) in rats expressed as urinary output. at a dose of 64 mg/kg; 7.33/10; assay type: functional, Urine
Rattus norvegicus [9] = assay: Compound was tested for oral salidiuretic activity (control/drug treatment value) in rats expressed as urinary output. at a dose of 16 mg/kg; 7.33/9.75; assay type: functional, Urine
Rattus norvegicus [10] = assay: Compound was tested for oral salidiuretic activity (control/drug treatment value) in rats expressed in Na+, mequiv/6 h at a dose of 128 mg/kg; 0.205/0.712; assay type: functional, Urine
Rattus norvegicus [11] = assay: Compound was tested for oral salidiuretic activity (control/drug treatment value) in rats expressed in Na+, mequiv/6 h at a dose of 64 mg/kg; 0.205/0.514; assay type: functional, Urine
Rattus norvegicus [12] = assay: Compound was tested for oral salidiuretic activity (control/drug treatment value) in rats expressed in Na+, mequiv/6 hr at a dose of 32 mg/kg; 0.205/0.358; assay type: functional, Urine
Rattus norvegicus [13] = assay: Compound was tested for oral salidiuretic activity (control/drug treatment value) in rats expressed in Na+, mequiv/6 hr at a dose of 16 mg/kg; 0.205/0.350; assay type: functional, Urine
Rattus norvegicus [14] = assay: Compound was tested for oral salidiuretic activity (control/drug treatment value) in rats expressed as urinary output. at a dose of 128 mg/kg; 7.33/11.50; assay type: functional, Urine
Rattus norvegicus [15] = assay: Compound was tested for oral salidiuretic activity (control/drug treatment value) in rats expressed as urinary output. at a dose of 128 mg/kg; 8.42/6.25; assay type: functional, Urine
Rattus norvegicus [16] = assay: Compound was tested for oral salidiuretic activity (control/drug treatment value) in rats expressed in Na+, mequiv/6 hr at a dose of 128 mg/kg; 0.186/0.179; assay type: functional, Urine
Rattus norvegicus [17] = assay: Compound was tested for oral salidiuretic activity (control/drug treatment value) in rats expressed as urinary output. at a dose of 128 mg/kg; 8.72/8.15; assay type: functional, Urine
Rattus norvegicus [18] = assay: Compound was tested for oral salidiuretic activity (control/drug treatment value) in rats expressed in Na+, mequiv/6 hr at a dose of 128 mg/kg; 0.163/0.139; assay type: functional, Urine
Rattus norvegicus [19] = assay: Compound was tested for oral salidiuretic activity (control/drug treatment value) in rats expressed in Na+, mequiv/6 hr at a dose of 32 mg/kg; 0.177/0.305; assay type: functional, Urine
Rattus norvegicus [20] = assay: Compound was tested for oral salidiuretic activity (control/drug treatment value) in rats expressed as urinary output. at a dose of 32 mg/kg; 7.87/8.10; assay type: functional, Urine
Rattus norvegicus [21] = assay: Compound was tested for oral salidiuretic activity (control/drug treatment value) in rats expressed as urinary output. at a dose of 128 mg/kg; 7.33/10.83; assay type: functional, Urine
Rattus norvegicus [22] = assay: Compound was tested for oral salidiuretic activity (control/drug treatment value) in rats expressed in Na+, mequiv/6 h at a dose of 128 mg/kg; 0.210/0.796; assay type: functional, Urine
Rattus norvegicus [23] = assay: Compound was tested for oral salidiuretic activity (control/drug treatment value) in rats expressed as urinary output. at a dose of 128 mg/kg; 7.33/13.83; assay type: functional, Urine
Rattus norvegicus [24] = assay: Compound was tested for oral salidiuretic activity (control/drug treatment value) in rats expressed in Na+, mequiv/6 hr at a dose of 128 mg/kg; 0.201/1.197; assay type: functional, Urine
Rattus norvegicus [25] = assay: Compound was tested for oral salidiuretic activity (control/drug treatment value) in rats expressed in Na+, mequiv/6 h at a dose of 128 mg/kg; 0.102/0.380; assay type: functional, Urine

Question: With `CCOC(=O)c1cc(NC(=O)Cc2ccsc2)ccc1OCC(O)CNC(C)C` (configuration not stated) as the molecule, how does the Activity (Rattus norvegicus [1]) read?
Answer: 8.72 mL

Question: What about the ID50 [2] of the same molecule?
Answer: > 1 mg/kg

Question: What about the ID50 [3] of the same molecule?
Answer: 0.02 mg/kg

Question: What about the Activity (Rattus norvegicus [4]) of the same molecule?
Answer: 0.163

Question: Which results are given for `CCOC(=O)c1cc(NC(=O)c2ccsc2)ccc1OCC(O)CNC(C)(C)C` (configuration not stated)?
Answer: Activity (Rattus norvegicus [5]): 8.42 mL; ID50 [2]: > 1 mg/kg; ID50 [3]: 0.06 mg/kg; Activity (Rattus norvegicus [6]): 0.186

Question: `CCOC(=O)c1cc(NC(=O)c2cccs2)ccc1OCC(O)CNC(C)C` (configuration not stated) was tested. Which Activity (Rattus norvegicus [7]) did it give?
Answer: 7.33 mL

Question: What about the Activity (Rattus norvegicus [8]) of the same molecule?
Answer: 7.33 mL

Question: And the Activity (Rattus norvegicus [9])?
Answer: 7.33 mL

Question: And the Activity (Rattus norvegicus [10])?
Answer: 0.205

Question: What about the ID50 [2] of the same molecule?
Answer: 0.45 mg/kg

Question: What about the ID50 [3] of the same molecule?
Answer: 0.3 mg/kg

Question: And the Activity (Rattus norvegicus [11])?
Answer: 0.205

Question: And the Activity (Rattus norvegicus [12])?
Answer: 0.205

Question: What about the Activity (Rattus norvegicus [13]) of the same molecule?
Answer: 0.205

Question: And the Activity (Rattus norvegicus [14])?
Answer: 7.33 mL

Question: What does the source list for `CCOC(=O)c1cc(NC(=O)Cc2cccs2)ccc1OCC(O)CNC(C)(C)C` (configuration not stated)?
Answer: Activity (Rattus norvegicus [15]): 8.42 mL; ID50 [2]: 0.6 mg/kg; ID50 [3]: 0.004 mg/kg; Activity (Rattus norvegicus [16]): 0.186

Question: Which results are given for `CCOC(=O)c1cc(NC(=O)Cc2cccs2)ccc1OCC(O)CNC(C)C` (configuration not stated)?
Answer: treated urinary output (Rattus norvegicus [17]): 8.15 mL; Activity (Rattus norvegicus [18]): 0.163

Question: For `CC(=O)c1cc(NC(=O)c2cccs2)ccc1OCC(O)CNC(C)(C)C` (configuration not stated), which ID50 [2] is on record?
Answer: > 1 mg/kg

Question: What about the ID50 [3] of the same molecule?
Answer: 0.022 mg/kg

Question: And the Activity (Rattus norvegicus [19])?
Answer: 0.177

Question: And the Activity (Rattus norvegicus [20])?
Answer: 7.87 mL

Question: Which results are given for `CCCOC(=O)c1cc(NC(=O)c2cccs2)ccc1OCC(O)CNC(C)C` (configuration not stated)?
Answer: Activity (Rattus norvegicus [21]): 7.33 mL; Activity (Rattus norvegicus [22]): 0.21

Question: `CC(C)OC(=O)c1cc(NC(=O)c2cccs2)ccc1OCC(O)CNC(C)(C)C` (configuration not stated) was tested. Which Activity (Rattus norvegicus [23]) did it give?
Answer: 7.33 mL

Question: What about the ID50 [2] of the same molecule?
Answer: > 1 mg/kg

Question: And the ID50 [3]?
Answer: 0.32 mg/kg

Question: What about the Activity (Rattus norvegicus [24]) of the same molecule?
Answer: 0.21

Question: `CC(C)(C)NCC(O)COc1ccc(NC(=O)c2cccs2)cc1C#N` (configuration not stated) was tested. Which Activity (Rattus norvegicus [25]) did it give?
Answer: 0.102

Question: What about the ID50 [2] of the same molecule?
Answer: 0.55 mg/kg

Question: What about the ID50 [3] of the same molecule?
Answer: 0.022 mg/kg
